Experimental data: patent US20250108142A1, “METHODS FOR TREATING LEAKAGE FROM A GASTROINTESTINAL SITE” (Ethicon, Inc., priority 2023, published 2025)

Assay: Release of ibuprofen from fibrin clot in an in vitro setting
Format: physicochemical
Description: Release of ibuprofen from fibrin clot in an in vitro setting: A similar procedure was applied for ibuprofen embedded in fibrin sealant and for PLGA-ibuprofen embedded in fibrin sealant. […] This step was repeated 15 times (days). The ibuprofen concentration was measured by its UV signature, that is, UV absorption at 221 nm.

In the case of `CC(C)Cc1ccc(C(C)C(=O)O)cc1` (stereo not shown) [Ibuprofen, ibuprofen], the release profile is reported as “less than controlled manner”.
